{"source": "patent US11331364B2", "about": "“Use for JNK inhibitor molecules for treatment of various diseases” (Xigen Inflammation Ltd., priority 2014, dated 2022)", "system": "Hela cells", "assay": "Internalization of transporter constructs, 24 hours, fluorescence of cell extracts", "format": "cell-based", "conditions": "FIG. 6; Y in position 2", "method": "The transporter sequences analyzed correspond to SEQ ID NOs: 52-94 plus SEQ ID NOs: 45, 47, 46, 43 and 99 (FIG. 6A) and SEQ ID NOs: 100-147 (FIG. 6B). […] Hela cells were incubated 24 hours in 96 well plate with […] of the respective transporters. The cells were then washed twice with an acidic buffer (0.2M Glycin, 0.15M NaCl, pH 3.0) and twice with PBS. Cells were broken by the addition of RIPA lysis buffer. The relative amount of internalized peptide was then determined by reading the fluorescence intensity (Fusion Alpha plate reader; PerkinElmer) of each extract followed by background subtraction.\nHela cells were incubated 24 hours in 96 well plate with […] of the r3-L-TAT-derived transporters. The cells were then washed twice with an acidic buffer (0.2M Glycin, 0.15M NaCl, pH 3.0) and twice with PBS. Cells were broken by the addition of RIPA lysis buffer. The relative amount of internalized peptide was then determined by reading the fluorescence intensity (Fusion Alpha plate reader; PerkinElmer) of each extract followed by background subtraction", "note": "Square brackets hold non-standard residues; d marks the D form. Ends that are not written are not given here."}
{"substance": "rYKRrQRRr ([dR]YKR[dR]QRR[dR]) [SEQ ID NO: 142]", "values": [{"measurement": "transporter activity", "result": "highest transporter activity"}]}
